Data on one molecule can be found in patent US20250268876A1, “TREATMENT OF HIDRADENITIS SUPPURATIVA WITH ORISMILAST” (UNION THERAPEUTICS A/S, priority 2021, published 2025).

This data set in a line: in vivo. Particulars: ferret, po.

For `O=C(Cc1c(Cl)c[n+]([O-])cc1Cl)c1ccc(OC(F)F)c2c1OC1(CCS(=O)(=O)CC1)O2` [Compound (I), 2-(3,5-Dichloro-1-oxido-pyridine-4-yl)-1-(7-difluoro-methoxy-2′,3′,5′,6′-tetrahydro-spiro[1,3-benzodioxole-2,4′-(4H)-thiopyran-1′,1′-dioxide]-4-yl)ethanone], the NOAEL (usually the highest dose or exposure tested at which no adverse effect was seen) at 3 h amounted to 3 mg/kg.
